According to doi:10.1101/2025.02.26.640323, “Aggregation-Dependent Epitope Sequence and Modification Fingerprints of Anti-Aβ Antibodies” (bioRxiv, 2025):
Entries after “also recorded” stand apart in the source; their conditions may differ.

What was measured:
[1] = system: amyloid precursor protein (APP770) residues 649–722; assay: Peptide microarray epitope pre-screening (overlapping 15-mers); format: binding, human; details: 0.5–1 μg/mL antibody
Experimental: Information regarding binding epitopes and /or immunogens for most of the tested Aβ-Abs has been published and is summarized in Table 1. However, the binding epitope information was derived from varying methodologies. To provide an initial side-by-side comparison we pre-screened all of the listed Aβ-Abs in array format using copies of peptide libraries and standard antibody concentrations of 0.5–1 μg/mL (Figure 1a). The library comprised the amyloid precursor protein (APP770) residues 649–722, corresponding to the canonical Aβ1–42 amino acid sequence with additional 23 amino terminal and 9 carboxy terminal residues. […] For optimal signal to noise ratios and ideal selectivity profiles on the microarrays, the Aβ-Ab concentrations were adjusted for 3D6, 82E1, 11H3, 80C2 and 7H3D6 (Figure 1 – figure- supplement 1) and (Appendix 1–7). […] Specifically, Donanemabbs, 2–48 and Aβ-pE3 were raised against AβpE3-x (Table 1) and were expected to show preference for Aβ peptides starting with a pE(3).
Figure 1. Microarray workflow and Aβ-Ab epitope pre-screening. (a) Schematic of the microarray workflow. The library comprised the amyloid precursor protein (APP) residues 649–722 (APP770 numbering), corresponding to Aβ residues −23 to 51, as a library of 15-mer peptides overlapping by 14AAs, copied in dozens, and probed for Aβ-Abs binding followed by analysis in MARTin. (b) The epitope screening binding data are summarized as a heatmap. Blue and red shades indicate the relative binding strength of the related arrayed peptides to the left and cognate Aβ-Ab on top. The blue – red scale is visualizing the normalized binding intensity for each antibody individually. The applied antibody concentrations ranged between 0.5–1 μg/mL.
The μSPOT assay was performed as previously described. […] Peptide arrays were synthesized using MultiPep RSi robot (CEM GmbH, Kamp-Lintford, Germany) on cellulose discs containing Fmoc-β-Ala linkers. Natural amino acid building blocks were purchased from IRIS (IRIS Biotech GmbH, Marktredwitz, Germany). Special building blocks employed in this study such as isomers, stereoisomers, phosphorylation and pyroglutamination […] modifications are listed here: Fmoc-L-Ser(PO(OBzl)OH)-OH (Iris – FAA1423), L-Pyroglutamic acid pentachlorophenyl ester (Novabiochem - 8.54203), Fmoc-L-Asp-OtBu (Iris – FAA1356), Fmoc-D-Asp-OtBu (Carbosolutions – CC05095) and Fmoc-D-Asp(tBu)-OH (Iris – FAA1309). Synthesis was carried out by deprotecting the Fmoc-group using 20% piperidine in dimethylformamide (DMF). Peptide chains were elongated using a coupling solution consisting of amino acids (0.5M) with oxyma (1M) and DIC (1M) in DMF (1:1:1). Coupling steps were carried out 3 times (30min), followed by capping (4% acetic anhydride in DMF). Discs were transferred into 96 deep-well plates for the work-up.

[2] = system: PTM-carrying Aβ peptides (PTM-Aβ); assay: PTM-Aβ microarray, general; format: binding, human; details: general statement
Excerpt: (§1) Specific PTMs might be associated with different stages of AD progression and severity, offering potential biomarkers for diagnosis and prognosis. Targeting PTMs represents a potential therapeutic strategy to prevent Aβ aggregation and neurotoxicity, thereby slowing disease progression. […] Therefore, a selected group of PTM-carrying Aβ peptides (PTM-Aβ) were incorporated into the Aβ chip to explore the potential binding preference of selected Aβ-Abs, under optimized concentrations (Figure 3). The antibodies were tested with both PTM-Aβ and the corresponding unmodified variants to provide a head-to-head comparison. This screening was performed in the presence of Aβ phosphorylated at positions Ser(8) or Ser(26), N-terminal pE at position 3, racemization/isomerization of Asp at position 1, and unmodified N-terminal variants. The dataset is divided into sections (Figure 3 a–f) for enhanced visualization, where each antibody was screened simultaneously against all peptides to locate their epitope preferences. […] A set of antibodies without reported PTM preference was applied here as controls (refer to Table 1), namely 11H3, 101–1-1, IC16, 82E1 and 3D6.
(§2) Figure 3. […] Blue and red shades indicate the binding strength over the related arrayed […] modified peptide shown on top and cognate anti-Aβ antibody to the left. […]

AβpE3-x = assay: PTM-Aβ microarray, pE3; format: binding, human; details: Donanemabbs 0,0012μg/mL, 2–48, Aβ-pE3, IC16 […], vs Aβ3-x with non-cyclized Glu
Excerpt: as §1, §2

[3] = system: mixture of ten synthetic Aβ peptides; assay: IP-MS from mixture of ten synthetic Aβ peptides; format: binding; details: TOPAC matrix, 10ng/mL each peptide
[4] = system: Aβ1–42 monomer, oligomer and fibril preparations; AβpE3–40; assay: Bistris-SDS gradient PAGE/Western blot; format: binding; details: 4–12% Bistris SDS-PAGE
Experimental: No SPR-487B) (StressMarq biosciences, Victoria, BC, Canada). The samples for electrophoresis were prepared (starting from stock solutions) with final concentrations of 0.1 μg/μL) in LDS sample buffer (247.5 mM Tris-HCl, pH 8.5, 2% (w/v) lithium dodecyl sulfate (LDS), 10% (v/v) glycerol, 0.5 mM EDTA, 0.22 mM Brilliant Blue G250, 0.175 mM Phenol Red) and denatured by heating at 70°C for 10 min. […] The prechilled transfer buffer contained 25 mM Tris, 192 mM glycine, 20% (v/v) methanol and 0.0375 % Tween-20. After blotting, the membrane was washed for 10 min at room temperature in Tris-buffered saline (TBS) followed by blocking for 30 min with 5% powdered milk in TBS containing 0.1% Tween-20 (TBS-T). The blots were then incubated with primary antibodies in 5% milk in TBS-T over night at 4°C and washed 3 × for 10 min with TBS-T at room temperature. […] After 1 h incubation with the secondary antibodies, the blots were washed 3 × for 10 min with TBS-T and incubated for 5 min with ECL-Prime Western Blotting Detection Reagent (Cytiva Amersham, Little Chalfont, England). Images were recorded on a Vilber-Loumart Fusion SL blot imager. […] That way, the 4G8 reprobing signals were essentially added on top of the initial signals and background artifacts.

synthetic Aβ peptides = assay: Peptide Bicine-Tris SDS-PAGE/Western blot; format: binding; details: PVDF, 50 ng per peptide, 0.5 μg/mL antibody

With “Donanemabbs: humanized monoclonal, biosimilar of Donanemab, Proteogenix (#PX-TA1549)” the “Array: epitope identified in this study on microarrays” value ([1]; Aβ residue numbers, 15-mer peptides overlapping by 14AAs on cellulose conjugates, chemiluminescence) was 3–10, the “binding in epitope pre-screening” value ([1]; unmodified Aβ-related 15-mers, generic pre-screening conditions) was “detected Aβ(3-x) starting with non-cyclized Glu (3), Aβ(−3-x) as well as several other N-terminally elongated Aβ-related peptides and Aβ1-x; also recorded: clear signals with AβpE3-x and several other Aβ related peptides starting N-terminally of Glu(3), including Aβ1-x” and the “preference for PTMs” value [2] was “exhibited the previously reported preferences for PTMs”. The “selectivity for / binding to AβpE3-x” value (AβpE3-x) was “high selectivity for Aβ peptides starting with an N-terminal pE”, the “IP-MS signal of AβpE3–40” value [3] was “highly preferential binding” and the “detection of AβpE3–40, Bistris Western blot” value [4] was “detected multiple AβpE3–40 bands in the low Mwrange”. For the same substance, the “detection of HFIP-treated monomeric, oligomeric and fibrillar Aβ1–42” value [4] was “very faint signals” and the “Aβ variants detected on Bicine-Tris SDS-PAGE/Western blot” value (synthetic Aβ peptides) was “detected AβpE3–40 and Aβ3–40”.
